Measured values as given in article PMC10528299, “Targeting FAK/PYK2 with SJP1602 for Anti-Tumor Activity in Triple-Negative Breast Cancer” (Current Issues in Molecular Biology, 2023).

What was measured:
Test in all cases: Eurofins kinase profiling
Assay type in all cases: biochemical
[1] = target: T1, PDGFRα(h) (Homo sapiens, UniProt P16234); conditions: read-out: residual kinase activity PDGFRα(h)
T1 construct: purchased Eurofins KinaseProfiler
Summary of the method: (§1)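 Each kinase is incubated with compound (1 µM). Activity is then determined radiometrically from transfer of labeled phosphate.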

[2] = target: T2, Flt1(h) (Homo sapiens, UniProt P17948); conditions: read-out: residual kinase activity Flt1(h)
T2 construct: purchased Eurofins KinaseProfiler
T2 sequence (P17948 27-1338): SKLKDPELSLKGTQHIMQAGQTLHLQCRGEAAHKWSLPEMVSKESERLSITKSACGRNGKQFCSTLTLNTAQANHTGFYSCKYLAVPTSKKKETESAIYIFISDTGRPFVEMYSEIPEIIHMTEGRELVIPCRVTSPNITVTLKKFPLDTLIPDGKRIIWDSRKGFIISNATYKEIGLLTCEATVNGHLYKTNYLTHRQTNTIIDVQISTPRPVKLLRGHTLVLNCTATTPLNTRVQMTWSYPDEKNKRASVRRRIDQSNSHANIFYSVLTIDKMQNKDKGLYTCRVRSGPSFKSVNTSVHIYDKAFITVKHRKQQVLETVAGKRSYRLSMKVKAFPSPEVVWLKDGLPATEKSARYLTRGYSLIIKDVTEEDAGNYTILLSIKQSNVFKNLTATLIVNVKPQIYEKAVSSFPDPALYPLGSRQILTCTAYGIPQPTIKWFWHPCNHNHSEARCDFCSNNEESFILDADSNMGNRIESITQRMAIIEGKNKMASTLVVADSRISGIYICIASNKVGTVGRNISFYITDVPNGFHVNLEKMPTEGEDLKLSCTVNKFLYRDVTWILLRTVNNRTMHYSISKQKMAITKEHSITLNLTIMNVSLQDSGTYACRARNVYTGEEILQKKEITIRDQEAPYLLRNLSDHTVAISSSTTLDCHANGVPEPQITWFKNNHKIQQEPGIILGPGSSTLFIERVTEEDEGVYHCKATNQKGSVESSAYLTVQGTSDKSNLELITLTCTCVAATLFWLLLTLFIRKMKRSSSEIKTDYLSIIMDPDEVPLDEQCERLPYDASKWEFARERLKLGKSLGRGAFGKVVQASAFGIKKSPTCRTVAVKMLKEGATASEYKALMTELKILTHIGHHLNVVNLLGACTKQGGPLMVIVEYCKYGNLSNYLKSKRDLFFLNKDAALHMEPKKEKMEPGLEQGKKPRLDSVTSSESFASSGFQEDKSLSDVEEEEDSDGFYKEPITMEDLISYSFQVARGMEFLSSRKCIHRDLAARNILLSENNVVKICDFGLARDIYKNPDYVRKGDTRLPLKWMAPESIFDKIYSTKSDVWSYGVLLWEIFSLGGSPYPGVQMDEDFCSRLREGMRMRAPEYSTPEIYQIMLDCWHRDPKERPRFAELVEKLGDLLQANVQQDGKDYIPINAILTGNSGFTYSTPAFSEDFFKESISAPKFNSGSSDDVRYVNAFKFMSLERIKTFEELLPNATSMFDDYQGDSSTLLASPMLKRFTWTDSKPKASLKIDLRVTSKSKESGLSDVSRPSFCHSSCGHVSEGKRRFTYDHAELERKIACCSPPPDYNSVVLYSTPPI
Summary of the method: as §1

[3] = target: T3, DYRK2(h) (Homo sapiens, UniProt Q92630); conditions: read-out: residual kinase activity DYRK2(h)
T3 construct: purchased Eurofins KinaseProfiler
T3 sequence (Q92630 1-601): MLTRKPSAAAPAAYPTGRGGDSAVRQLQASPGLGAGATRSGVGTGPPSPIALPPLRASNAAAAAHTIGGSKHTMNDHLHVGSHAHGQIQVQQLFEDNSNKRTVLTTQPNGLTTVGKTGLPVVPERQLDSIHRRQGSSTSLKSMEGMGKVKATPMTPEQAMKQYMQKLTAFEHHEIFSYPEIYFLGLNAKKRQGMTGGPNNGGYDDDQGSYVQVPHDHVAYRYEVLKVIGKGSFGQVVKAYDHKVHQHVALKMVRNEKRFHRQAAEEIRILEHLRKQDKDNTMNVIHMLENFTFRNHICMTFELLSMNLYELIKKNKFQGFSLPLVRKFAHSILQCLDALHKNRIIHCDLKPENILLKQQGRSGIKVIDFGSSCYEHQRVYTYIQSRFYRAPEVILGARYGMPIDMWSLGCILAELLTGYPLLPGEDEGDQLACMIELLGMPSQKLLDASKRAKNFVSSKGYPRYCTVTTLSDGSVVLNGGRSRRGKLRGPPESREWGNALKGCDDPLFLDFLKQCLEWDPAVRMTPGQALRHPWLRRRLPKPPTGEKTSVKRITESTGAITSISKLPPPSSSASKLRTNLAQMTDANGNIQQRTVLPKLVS
Summary of the method: as §1

[4] = target: T4, DDR2(h) (Homo sapiens, UniProt Q16832); conditions: read-out: residual kinase activity DDR2(h)
T4 construct: purchased Eurofins KinaseProfiler
T4 sequence (Q16832 22-855): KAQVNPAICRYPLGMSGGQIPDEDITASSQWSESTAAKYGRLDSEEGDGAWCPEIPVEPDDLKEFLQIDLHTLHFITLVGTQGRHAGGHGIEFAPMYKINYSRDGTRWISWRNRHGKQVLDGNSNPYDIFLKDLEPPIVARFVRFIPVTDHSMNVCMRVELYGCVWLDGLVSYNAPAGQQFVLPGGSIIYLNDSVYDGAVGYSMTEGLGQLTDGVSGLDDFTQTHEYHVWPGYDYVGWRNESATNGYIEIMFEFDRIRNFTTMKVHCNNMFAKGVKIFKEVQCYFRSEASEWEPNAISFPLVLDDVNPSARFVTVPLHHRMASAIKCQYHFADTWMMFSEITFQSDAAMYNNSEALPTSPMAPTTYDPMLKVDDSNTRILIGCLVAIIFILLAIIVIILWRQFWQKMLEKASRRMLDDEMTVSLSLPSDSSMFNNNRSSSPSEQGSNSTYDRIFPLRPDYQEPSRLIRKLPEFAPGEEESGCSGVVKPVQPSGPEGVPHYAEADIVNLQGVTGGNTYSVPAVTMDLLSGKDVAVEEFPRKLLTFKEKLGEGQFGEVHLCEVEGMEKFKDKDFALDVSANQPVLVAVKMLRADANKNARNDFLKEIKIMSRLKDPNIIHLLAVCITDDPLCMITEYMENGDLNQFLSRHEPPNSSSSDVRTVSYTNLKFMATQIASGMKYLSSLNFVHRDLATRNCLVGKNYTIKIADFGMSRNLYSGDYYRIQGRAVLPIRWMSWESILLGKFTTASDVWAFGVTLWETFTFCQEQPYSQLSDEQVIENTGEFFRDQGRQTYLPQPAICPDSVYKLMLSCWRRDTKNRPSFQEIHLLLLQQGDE
Summary of the method: as §1

[5] = target: T5, PKCη(h) (Homo sapiens, UniProt P24723); conditions: read-out: residual kinase activity PKCη(h)
T5 construct: purchased Eurofins KinaseProfiler
T5 sequence (P24723 whole entry): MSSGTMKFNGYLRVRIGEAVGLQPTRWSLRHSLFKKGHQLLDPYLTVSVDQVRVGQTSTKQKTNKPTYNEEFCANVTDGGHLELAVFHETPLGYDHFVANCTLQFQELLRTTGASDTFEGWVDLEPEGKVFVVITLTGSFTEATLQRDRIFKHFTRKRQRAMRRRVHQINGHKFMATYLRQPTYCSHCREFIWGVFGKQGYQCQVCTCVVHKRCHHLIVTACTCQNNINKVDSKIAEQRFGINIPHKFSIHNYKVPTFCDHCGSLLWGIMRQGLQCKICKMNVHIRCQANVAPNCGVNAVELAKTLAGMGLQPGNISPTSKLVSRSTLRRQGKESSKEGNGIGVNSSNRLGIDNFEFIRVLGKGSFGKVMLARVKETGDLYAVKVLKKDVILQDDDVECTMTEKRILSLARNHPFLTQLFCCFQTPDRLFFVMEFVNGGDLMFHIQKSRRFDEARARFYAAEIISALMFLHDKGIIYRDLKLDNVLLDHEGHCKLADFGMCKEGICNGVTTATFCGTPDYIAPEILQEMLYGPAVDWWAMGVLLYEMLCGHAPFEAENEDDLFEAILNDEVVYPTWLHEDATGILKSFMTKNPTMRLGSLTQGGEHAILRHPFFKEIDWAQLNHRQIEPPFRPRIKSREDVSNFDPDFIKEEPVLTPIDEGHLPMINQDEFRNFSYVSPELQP
Summary of the method: as §1

[6] = target: T6, Flt3(D835Y)(h) (Homo sapiens, UniProt P36888, D835Y); conditions: read-out: residual kinase activity Flt3(D835Y)(h)
T6 construct: purchased Eurofins KinaseProfiler
T6 sequence (P36888 27-993 D835Y): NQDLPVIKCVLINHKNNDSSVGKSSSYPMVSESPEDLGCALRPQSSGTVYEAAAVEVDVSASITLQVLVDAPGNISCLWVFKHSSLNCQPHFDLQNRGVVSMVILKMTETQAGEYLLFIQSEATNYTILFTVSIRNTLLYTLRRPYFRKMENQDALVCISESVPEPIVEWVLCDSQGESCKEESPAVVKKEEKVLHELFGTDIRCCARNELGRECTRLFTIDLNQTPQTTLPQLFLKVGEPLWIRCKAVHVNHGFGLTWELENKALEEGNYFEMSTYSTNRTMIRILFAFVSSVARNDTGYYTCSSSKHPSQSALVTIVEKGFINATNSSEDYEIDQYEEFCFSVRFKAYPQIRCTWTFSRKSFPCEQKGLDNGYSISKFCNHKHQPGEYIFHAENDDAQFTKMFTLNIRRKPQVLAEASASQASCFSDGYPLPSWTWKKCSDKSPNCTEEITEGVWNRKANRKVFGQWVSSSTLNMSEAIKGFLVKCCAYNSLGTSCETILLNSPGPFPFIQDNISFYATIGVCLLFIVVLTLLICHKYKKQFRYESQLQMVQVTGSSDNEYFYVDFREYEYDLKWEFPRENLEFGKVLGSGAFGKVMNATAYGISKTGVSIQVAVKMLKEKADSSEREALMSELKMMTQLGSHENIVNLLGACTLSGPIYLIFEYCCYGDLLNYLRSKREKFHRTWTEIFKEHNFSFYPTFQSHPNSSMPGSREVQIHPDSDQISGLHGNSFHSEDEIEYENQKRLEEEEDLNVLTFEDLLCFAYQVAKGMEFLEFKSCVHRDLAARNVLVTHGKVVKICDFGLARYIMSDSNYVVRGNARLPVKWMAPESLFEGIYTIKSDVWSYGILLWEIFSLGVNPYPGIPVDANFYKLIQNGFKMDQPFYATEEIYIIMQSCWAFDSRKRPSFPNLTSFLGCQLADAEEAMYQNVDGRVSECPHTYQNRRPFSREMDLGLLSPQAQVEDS
Summary of the method: as §1

T1 sequence (P16234 24-1089): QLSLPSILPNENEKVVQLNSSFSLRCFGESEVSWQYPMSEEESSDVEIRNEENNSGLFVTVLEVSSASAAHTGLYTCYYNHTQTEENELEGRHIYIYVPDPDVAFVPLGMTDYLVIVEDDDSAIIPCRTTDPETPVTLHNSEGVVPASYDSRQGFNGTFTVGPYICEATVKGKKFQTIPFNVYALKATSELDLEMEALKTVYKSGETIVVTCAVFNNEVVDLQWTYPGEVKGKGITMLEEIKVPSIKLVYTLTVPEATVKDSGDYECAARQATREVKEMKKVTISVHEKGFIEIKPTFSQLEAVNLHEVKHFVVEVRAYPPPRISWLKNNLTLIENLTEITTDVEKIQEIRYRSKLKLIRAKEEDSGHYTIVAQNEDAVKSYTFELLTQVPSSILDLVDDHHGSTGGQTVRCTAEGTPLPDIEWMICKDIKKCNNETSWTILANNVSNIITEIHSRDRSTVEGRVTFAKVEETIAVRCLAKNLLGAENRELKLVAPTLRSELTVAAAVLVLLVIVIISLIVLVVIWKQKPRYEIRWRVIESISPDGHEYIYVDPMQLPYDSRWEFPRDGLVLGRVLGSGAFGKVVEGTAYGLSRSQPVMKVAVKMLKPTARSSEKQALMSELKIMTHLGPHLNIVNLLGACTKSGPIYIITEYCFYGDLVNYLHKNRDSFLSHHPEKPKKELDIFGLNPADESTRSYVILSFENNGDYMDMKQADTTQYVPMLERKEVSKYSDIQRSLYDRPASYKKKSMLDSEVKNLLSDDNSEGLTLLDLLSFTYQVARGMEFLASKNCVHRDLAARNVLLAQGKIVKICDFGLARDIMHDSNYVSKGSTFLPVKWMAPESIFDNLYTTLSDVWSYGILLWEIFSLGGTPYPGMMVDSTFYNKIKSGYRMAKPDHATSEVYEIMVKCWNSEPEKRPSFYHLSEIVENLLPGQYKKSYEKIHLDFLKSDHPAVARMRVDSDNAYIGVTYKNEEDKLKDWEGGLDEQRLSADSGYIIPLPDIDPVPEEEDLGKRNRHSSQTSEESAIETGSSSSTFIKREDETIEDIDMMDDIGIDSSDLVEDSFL

Row | remaining activity at 1 µM [1] [%] | remaining activity at 1 µM [2] [%] | remaining activity at 1 µM [3] [%] | remaining activity at 1 µM [4] [%] | remaining activity at 1 µM [5] [%] | remaining activity at 1 µM [6] [%] | SMILES
1 | 101 | 94 | 52 | 138 | 97 | 76 | CONC(=O)c1ccccc1Nc1cc(Nc2cc(C)nn2C(C)C)ncc1Cl [GSK2256098]
2 | 79 | 21 | 80 | 94 | 104 | 7 | CNC(=O)c1ccc(Nc2ncc(C(F)(F)F)c(NCc3nccnc3N(C)S(C)(=O)=O)n2)cc1 [VS-6063, Defactinib]

Row | SMILES | remaining activity at 1 µM [1] [%] | remaining activity at 1 µM [2] [%] | remaining activity at 1 µM [3] [%] | remaining activity at 1 µM [4] [%] | remaining activity at 1 µM [5] [%] | remaining activity at 1 µM [6] [%]
3 | CNC(=O)c1cccc(C)c1Nc1nc(Nc2ccc(N3CCN(C4C5CC6CC4CC(O)(C6)C5)CC3)cc2OC)ncc1C(F)(F)F (stereo not drawn) [SJP1602, 2-((2-((4-(4-((2s,5r)-5-hydroxyadamantan-2-yl)piperazin-1-yl)-2-methoxyphenyl)amino)-5-(trifluoromethyl)pyrimidin-4-yl)amino)-N,3-dimethylbenzamide] | 97 | 106 | 97 | 102 | 95 | 87
